The results in this text go back to PMC7734625, “Stabilization Strategies for Linear Minigastrin Analogues: Further Improvements via the Inclusion of Proline into the Peptide Sequence” (Journal of Medicinal Chemistry, 2020).

Molecules are shown by their SMILES. Non-standard residues stand in square brackets, D forms with d. Residues, ends and D or L forms follow the SMILES beside them. *: point of attachment. DOTA = O=C(O)CN1CCN(CC(=O)O)CCN(CC(=O)*)CCN(CC(=O)O)CC1; 1Nal = N[C@@H](Cc1cccc2ccccc12)C(=O)O; NMeNle = CCCC[C@H](NC)C(=O)O

For data set [1], the target named is T1, human CCK2R (Homo sapiens, UniProt P32239).
T1 construct: expressed in transfected cells; host or cells: A431 human epidermoid carcinoma cells, stably transfected (pCR3.1), provided by Dr. Luigi Aloj
T1 sequence (P32239 1-447): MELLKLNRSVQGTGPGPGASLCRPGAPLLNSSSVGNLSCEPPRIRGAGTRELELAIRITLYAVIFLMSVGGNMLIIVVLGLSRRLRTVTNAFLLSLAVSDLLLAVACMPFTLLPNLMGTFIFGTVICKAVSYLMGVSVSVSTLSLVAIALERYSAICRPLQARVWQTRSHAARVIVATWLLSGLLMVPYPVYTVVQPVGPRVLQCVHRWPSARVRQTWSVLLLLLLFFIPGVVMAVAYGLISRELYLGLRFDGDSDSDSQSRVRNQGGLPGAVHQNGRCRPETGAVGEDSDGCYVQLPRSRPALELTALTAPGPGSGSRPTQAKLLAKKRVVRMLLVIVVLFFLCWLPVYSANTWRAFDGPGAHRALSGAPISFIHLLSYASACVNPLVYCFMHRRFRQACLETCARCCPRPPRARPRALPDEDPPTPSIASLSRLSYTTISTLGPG
Description: competitive binding against [125I][3-iodo-Tyr12,Leu15]gastrin-I on A431-CCK2R cells. The conditions noted are these: unlabeled peptide, three independent assays, read-out: apparent IC50. The procedure: Binding assays were carried in 96-well filter plates (MultiScreenHTS-FB, Merck Group, Darmstadt, Germany) pretreated with 10 mM TRIS/139 mM NaCl buffer, pH 7.4 (TRIS-buffer) (2 × 250 μL) before 400 000 A431-CCK2R cells per well were added in 35 mM HEPES buffer, pH 7.4, containing 10 mM MgCl2, 14 μM bacitracin, and 0.5% bovine serum albumin (BSA).[46] Competition assays were performed three times in triplicate using increasing concentrations of competitor (0.003–1000 nM) and a constant amount of radioligand (∼40 000 cpm). After 1 h of incubation at room temperature (RT), the medium was removed and the filters were rapidly rinsed with ice-cold TRIS-buffer (2 × 200 μL), removed and counted in a γ-counter. Half-maximal inhibitory concentration (IC50) values were calculated following nonlinear regression with Origin software (MicroCal Origin 6.1, Northampton, MA). Even though incubation was performed in a hypoosmotic solution disturbing the integrity of the cell membrane, we cannot totally exclude that a limited extent of internalization affecting the binding equilibrium occurred. Therefore, the binding affinity measurements obtained from these studies are presented as “apparent IC50” rather than IC50.

Data set [2] is classed as in vitro ADME. The conditions noted are these: 120 min, pH 7.3. Here is the method:
(§1) In vitro stability studies characterizing the complex stability as well as the metabolic stability of the radiolabeled peptide analogues were carried out in PBS, fresh human serum, and rat liver and rat kidney homogenates. Organ homogenates were prepared from freshly dissected organs homogenized (IKA-Werke, Staufen, Germany) for 1 min at room temperature (RT) in a 20 mM 4-(2-hydroxyethyl)-1-piperazineethanesulfonic acid (HEPES) buffer at pH 7.3 (30% w/v). A fraction of 0.1 mL of radiolabeled peptide diluted in PBS/HEPES was added to 0.9 mL of medium reaching a final concentration of ∼500 pmol/mL and incubated at 37 °C for up to 120 min in rat organ homogenates (n = 2) and up to 24 h in human serum or PBS (n = 1). At each time point, 100 μL of sample was taken treated with 150 μL of ACN to precipitate proteins centrifuged (2000g, 2 min), diluted with water (1:1), and a fraction of 100 μL was injected to the analytical HPLC system. For serum and tissue homogenates, only the soluble phase extracted after centrifugation was analyzed, whereas the radioactivity lost in the pellet was not considered.

Data set [3] addresses T1, human CCK2R. Put plainly: calcium mobilization assay on A431-CCK2R cells. The class given is cell-based. The conditions noted are these: mean ± SEM. On the technique in general: A change in cytosolic calcium serves as a functional read-out for many receptors and channels.
Description: (§2) For calcium mobilization assays evaluating receptor activation, A431-CCK2R cells stably transfected with human CCK2R and AR42J cells expressing rat CCK2R were seeded in flat clear bottom black 96-well plates (Corning, Bagneaux-sur-Loing, France), previously coated with poly-D-ornithine (100 μg/mL, 1 h, 37 °C), at densities of 60 000 and 120 000 cells/well, respectively. After 24 h in culture in a 5% CO2 atmosphere, the cells were rinsed twice with modified HBSS buffer (20 mM HEPES, 0.5 mM MgCl2, 2.6 mM CaCl2, 7.7 mM Na2CO3, 1.4 mM MgSO4, 5.3 mM KCl, 138 mM NaCl, 0.1% BSA, 5.5 mM glucose, 2.5 mM probenecid, pH 7.4) (Sigma-Aldrich, Saint-Quentin-Fallavier, France) and loaded (40 min at 37 °C) with the calcium-sensitive dye Fluo-4 AM (ThermoFisher Scientific, Montigny-Le-Bretonneux, France) containing pluronic acid (20% in dimethyl sulfoxide (DMSO)). […] Briefly, after 18 s recording in basal conditions, 50 μL of graded concentrations of the investigated peptides was added to the incubation medium with a built-in eight-channel pipettor to assess activity. […] EC50 values were calculated with the Prism 4.0 software using a logistic equation. Results were expressed as mean ± standard error of the mean (SEM) for at least three independent experiments in triplicate.
The target in a further data set is T2, rat CCK2R (Rattus norvegicus, UniProt P30553).
T2 construct: physiologically expressing the rat CCK2R; host or cells: AR42J rat pancreatic tumor cells
T2 sequence (P30553 1-452): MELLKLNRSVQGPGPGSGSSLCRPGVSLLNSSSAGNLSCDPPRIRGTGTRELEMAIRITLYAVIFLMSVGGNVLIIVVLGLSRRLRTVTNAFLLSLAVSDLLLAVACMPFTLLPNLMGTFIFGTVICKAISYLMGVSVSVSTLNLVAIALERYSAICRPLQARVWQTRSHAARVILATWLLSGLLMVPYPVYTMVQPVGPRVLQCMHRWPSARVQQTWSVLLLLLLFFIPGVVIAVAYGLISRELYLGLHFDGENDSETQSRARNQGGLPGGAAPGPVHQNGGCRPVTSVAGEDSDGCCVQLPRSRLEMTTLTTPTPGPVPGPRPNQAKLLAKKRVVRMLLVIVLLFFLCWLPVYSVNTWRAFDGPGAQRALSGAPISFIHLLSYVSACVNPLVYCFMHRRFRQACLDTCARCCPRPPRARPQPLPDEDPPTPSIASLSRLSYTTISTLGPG
Put plainly: calcium mobilization assay on AR42J cells. The conditions noted are these: mean ± SEM. Type of data set: cell-based.

Data set [4] is described as follows: log D, octanol/PBS distribution. The class given is physicochemical. As to conditions: 111In-labeled peptide.
Data set [5] in a line: in vivo stability studies in BALB/c mice. The conditions noted are these: 10 min p.i., i.v. Here is the method:
Metabolic studies evaluating the stability of the radioligands were carried out in 7- to 8-week-old female BALB/c mice. With the ^111In-labeled peptide derivatives, the studies were performed for the time point of 10 min p.i. (n = 2). With the ^177Lu-labeled peptide derivatives, additional studies were also carried out for the time point of 30 min and 60 min p.i. (n = 1 for each time point). To allow monitoring of the metabolites by analytical HPLC, the mice were injected with a higher amount of radioactivity (6–9 MBq indium-111, 30–45 MBq lutetium-177) corresponding to ∼1 nmol total peptide intravenously through a lateral tail vein. At different time points, the mice were euthanized by cervical dislocation and urine and a blood sample was collected. Liver and kidneys were excised and homogenized in 20 mM HEPES buffer pH 7.3. The amount of intact radiopeptide and the formation of metabolites was analyzed by analytical HPLC. Prior to injection into the HPLC system, all samples were treated as described for human serum and rat organ homogenate samples.

A short description of data set [6]: stability in rat kidney homogenate. Type of data set: in vitro ADME. The conditions noted are these: 120 min incubation, 37 °C. The procedure:
as §1

Description for rat CCK2R: as §2

In general, IC50 refers to the concentration that inhibits the measured activity by half. One may read the EC50 as the concentration needed to bring the measured effect to its halfway point. One may read the logD as lipophilicity at a set pH, counting ionised and neutral species. `CCCC[C@@H](C(=O)N[C@@H](CC(=O)O)C(=O)N[C@@H](Cc1cccc2ccccc12)C(N)=O)N(C)C(=O)[C@H](Cc1c[nH]c2ccccc12)NC(=O)CNC(=O)[C@@H]1CCCN1C(=O)[C@H](Cc1ccc(O)cc1)NC(=O)[C@@H](CCC(=O)O)NC(=O)CN1CCN(CC(=O)O)CCN(CC(=O)O)CCN(CC(=O)O)CC1` [compound 2] ({DOTA}-[dE]YPGW[NMeNle]D[1Nal]-NH2): the IC50 at human CCK2R [1] worked out at 0.6 ± 0.3 nM. Also, the “intact radiopeptide in rat liver homogenate” value in data set [2] is reported as 50-61%. For the same compound, the figures for the EC50 at human CCK2R [3] and at rat CCK2R were 14.2 ± 2.07 nM and 1.91 ± 0.49 nM, respectively. In addition, the logD in data set [4] was -1.75 ± 0.1.
Take `CCCC[C@@H](C(=O)N[C@@H](CC(=O)O)C(=O)N[C@@H](Cc1cccc2ccccc12)C(N)=O)N(C)C(=O)[C@H](Cc1c[nH]c2ccccc12)NC(=O)CNC(=O)[C@H](Cc1ccc(O)cc1)NC(=O)[C@@H]1CCCN1C(=O)[C@@H](CCC(=O)O)NC(=O)CN1CCN(CC(=O)O)CCN(CC(=O)O)CCN(CC(=O)O)CC1` [compound 1] ({DOTA}-[dE]PYGW[NMeNle]D[1Nal]-NH2): at human CCK2R [1], the IC50 was 1.4 ± 0.6 nM. The “intact radiopeptide in rat liver homogenate” value in data set [2] is reported as 39-53%. The EC50 stood at 12.3 ± 2.4 nM at human CCK2R [3] and 1.74 ± 0.81 nM on rat CCK2R. The logD in data set [4] is -2.03 ± 0.1.
On to `CCCC[C@@H](C(=O)N[C@@H](CC(=O)O)C(=O)N[C@@H](Cc1cccc2ccccc12)C(N)=O)N(C)C(=O)[C@H](Cc1c[nH]c2ccccc12)NC(=O)[C@@H]1CCCN1C(=O)[C@H](Cc1ccc(O)cc1)NC(=O)[C@H](C)NC(=O)[C@@H](CCC(=O)O)NC(=O)CN1CCN(CC(=O)O)CCN(CC(=O)O)CCN(CC(=O)O)CC1` [compound 3] ({DOTA}-[dE]AYPW[NMeNle]D[1Nal]-NH2), for which the IC50 at human CCK2R [1] was 1.3 ± 0.8 nM. Moreover, the EC50 at human CCK2R [3] came to 12.4 ± 3.83 nM; on rat CCK2R, 1.27 ± 0.72 nM. Further, the logD in data set [4] is -2.05 ± 0.08.
Turning to `CCCC[C@@H](C(=O)N[C@@H](CC(=O)O)C(=O)N[C@@H](Cc1cccc2ccccc12)C(N)=O)N(C)C(=O)[C@H](Cc1c[nH]c2ccccc12)NC(=O)CNC(=O)[C@H](Cc1ccc(O)cc1)NC(=O)[C@@H]1CCCN1C(=O)[C@@H](CCC(=O)O)NC(=O)CN1CCN(CC(=O)O)CCN(CC(=O)O)CCN(CC(=O)O)CC1` [[^111In]In-1] [metal not drawn] ({DOTA}-[dE]PYGW[NMeNle]D[1Nal]-NH2), in data set [5], the “intact radiopeptide in blood” value was found to be 80.0 ± 5.2%, the “intact radiopeptide in kidneys” value came out at 23.4 ± 4.2%, the “intact radiopeptide in liver” value was determined as 76.0 ± 0.4% and the “intact radiopeptide in urine” value was found to be 21.8 ± 8.1%. In addition, in data set [6], the “intact radiopeptide in rat kidney homogenate” value is around 5%.
